Laboratory results as given in ChEMBL document CHEMBL1143855, “(2S,2'R)-analogue of LG190178 is a major active isomer” (Bioorg Med Chem Lett, 2008).

The molecules below were run against T1, Vitamin D3 receptor (Homo sapiens) (UniProt P11473) (assay: Binding affinity to VDR relative to (1-alpha 25-(OH)2D3).
T1 sequence (whole entry): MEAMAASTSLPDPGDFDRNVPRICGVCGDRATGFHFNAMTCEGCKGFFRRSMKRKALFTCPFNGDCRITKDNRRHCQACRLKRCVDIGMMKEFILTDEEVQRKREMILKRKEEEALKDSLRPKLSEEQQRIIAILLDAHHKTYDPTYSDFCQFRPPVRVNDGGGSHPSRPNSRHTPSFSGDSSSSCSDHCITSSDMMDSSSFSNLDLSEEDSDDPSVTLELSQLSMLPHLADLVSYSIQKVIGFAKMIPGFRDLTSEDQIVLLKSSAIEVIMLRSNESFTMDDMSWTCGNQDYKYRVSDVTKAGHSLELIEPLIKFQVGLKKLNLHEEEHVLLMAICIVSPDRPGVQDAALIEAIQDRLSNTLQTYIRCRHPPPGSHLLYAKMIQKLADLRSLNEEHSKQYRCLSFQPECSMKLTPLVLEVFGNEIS
Molecule `CCC(CC)(c1ccc(OC[C@@H](O)CO)c(C)c1)c1ccc(OC[C@@H](O)C(C)(C)C)c(C)c1` has an Activity of 0.831.
Work on `CCC(CC)(c1ccc(OC[C@H](O)CO)c(C)c1)c1ccc(OC[C@H](O)C(C)(C)C)c(C)c1` yielded an Activity of 0.482.
For `CCC(CC)(c1ccc(OC[C@H](O)CO)c(C)c1)c1ccc(OC[C@@H](O)C(C)(C)C)c(C)c1`, the Activity was 0.112.
`CCC(CC)(c1ccc(OC[C@@H](O)CO)c(C)c1)c1ccc(OC[C@H](O)C(C)(C)C)c(C)c1` was tested, and the Activity was 28.3.
